Assay results published in patent publication US6576662B2, “Compounds having anticancer activity : process for their preparation and pharmaceutical compositions containing them” (Dr. Reddy's Laboratories Limited, priority 2000, dated 2003).
Where two headings read alike, the source gives them in different places.

Columns and labels:
tumor cell lines = settings: cited from earlier work
DU145 = assay: in vitro anti-cancer screen, Sulforhodamine B method; type: cell-based, human; settings: PROSTATE: DU145, 48 h incubation, read-out: GROWTH INHIBITION (GI 50)
Method: (§1) Each test compound was screened against a battery of cell lines representing eight different types of cancers. In a typical procedure, 1×10^4 cells were seeded into each well of 96 well plate in 100 μL volume of RPMI 1640 medium containing antibiotics and 10% FCS.
(§2) The plates were incubated at 37° C. in presence of CO2. After 24 h, test compounds were evaluated at five 10 fold dilutions ranging from 100 to 0.01 μM. To each test well 100 μL of test compound solution was added and medium with vehicle was added to control wells and the plates were further incubated. After 48 h of incubation, plates were terminated by Sulforhodamine B method.
(§3) The optical density which is proportional to protein mass, is then-read by automated spectrophotometric plate reader at a wavelength of 515 nm.

SW-620 = assay: as above; type: cell-based, human; settings: COLON: SW-620, 48 h incubation, read-out: GROWTH INHIBITION (GI 50)
Method: as §1, §2, §3

H522 = assay: as above; type: cell-based, human; settings: LUNG: H522, 48 h incubation, read-out: GROWTH INHIBITION (GI 50)
Method: as §1, §2, §3

M14 = assay: as above; type: cell-based, human; settings: MELANOMA: M14; 48 h incubation; read-out: GROWTH INHIBITION (GI 50)
Method: as §1, §2, §3

MCF-7/ADR = assay: as above; type: cell-based, human; settings: BREAST: MCF-7/ADR, 48 h incubation, read-out: GROWTH INHIBITION (GI 50)
Method: as §1, §2, §3

SKOV-3 = assay: as above; type: cell-based, human; settings: OVARIAN: SKOV-3, 48 h incubation, read-out: GROWTH INHIBITION (GI 50)
Method: as §1, §2, §3

A498 = assay: as above; type: cell-based, human; settings: RENAL: A498, 48 h incubation, read-out: GROWTH INHIBITION (GI 50)
Method: as §1, §2, §3

U251 = assay: as above; type: cell-based, human; settings: CNS: U251, 48 h incubation, read-out: GROWTH INHIBITION (GI 50)
Method: as §1, §2, §3

PC-3 = assay: as above; type: cell-based; settings: Homo sapiens; PROSTATE: PC-3; 48 h incubation; read-out: GROWTH INHIBITION (GI 50)
Method: as §1, §2, §3

MCF7 = assay: as above; type: cell-based, human; settings: Homo sapiens; BREAST: MCF7; 48 h incubation; read-out: GROWTH INHIBITION (GI 50)
Method: as §1, §2, §3

PA1 = assay: as above; type: cell-based, human; settings: Homo sapiens, PA-1; OVARIAN: PA1; 48 h incubation; read-out: GROWTH INHIBITION (GI 50)
Method: as §1, §2, §3

HT29 = assay: as above; type: cell-based, human; settings: Homo sapiens, HT-29; COLON: HT29; 48 h incubation; read-out: GROWTH INHIBITION (GI 50)
Method: as §1, §2, §3

UACC62 = assay: as above; type: cell-based, human; settings: Homo sapiens, UACC-62; MELANOMA: UACC62; 48 h incubation; read-out: GROWTH INHIBITION (GI 50)
Method: as §1, §2, §3

Human lymphocytes = assay: Lymphocyte proliferation, tritiated thymidine incorporation; type: cell-based; settings: Concentration 1 μM; human lymphocytes with Phytohemagglutitin A
Method: Human lymphocytes were isolated from whole blood by using Ficoll Hypaque Plus (Amersham). On day one, 1 million lymphocytes were seeded into each well of 96 well plate in 100 μL volume of RPMI 1640 medium containing 10% FCS and Phytohemagglutitin A at 1 μg/well concentration. Plates were incubated at 37° C. in CO2 incubator for 24 h. Test compounds at various concentrations were added to test wells and only medium with vehicle was added to control wells. After 48 h of incubation […] of tritiated thymidine was added to each well. After 24 h of thymidine addition the cells were harvested and the incorporated radioactivity was determined. Stimulation Index (SI) was calculated using the formula, [formula]
A^T=Average CPM of treated wells,
A^C=Average CPM of control wells.

OVCAR = assay: in vitro anti-cancer screen, Sulforhodamine B method; type: cell-based; settings: Homo sapiens; OVARIAN: OVCAR; 48 h incubation; read-out: GROWTH INHIBITION (GI 50)
Method: as §1, §2, §3

ACHN = assay: as above; type: cell-based; settings: Homo sapiens; RENAL: ACHN; 48 h incubation; read-out: GROWTH INHIBITION (GI 50)
Method: as §1, §2, §3

SMILES	GI50 (DU145) [µM]	GI50 (SW-620) [µM]	GI50 (H522) [µM]	GI50 (M14) [µM]	GI50 (MCF-7/ADR) [µM]	GI50 (SKOV-3) [µM]	GI50 (A498) [nM]	GI50 (U251) [nM]	GI50 (PC-3) [nM]	GI50 (DU145; Homo sapiens, DU-145) [µM]	GI50 (SW-620; Homo sapiens) [µM]	GI50 (H522; Homo sapiens, NCI-H522) [µM]	GI50 (MCF7) [nM]	GI50 (PA1) [nM]	GI50 (HT29) [nM]	GI50 (MCF-7/ADR; Homo sapiens, NCI/ADR-RES) [µM]	GI50 (SKOV-3; Homo sapiens, SK-OV-3) [µM]	GI50 (U251; Homo sapiens, U-251) [nM]	GI50 (UACC62) [nM]	melting point [°C]	further results
C=C1CCC2[C@](C)(CC[C@@H](O)[C@@]2(C)CO)C1/C=C/C1=CCOC1=O (stereo partly shown) [14-deoxy-11,12-didehydroandrographolide]																					cytotoxic activity (tumor cell lines): no cytotoxic activity
C=C1CCC2C(C)(COC(C)=O)C(OC(C)=O)CCC2(C)C1CC(NCc1ccc(OC)cc1)C1=CCOC1=O (stereo not shown) [Example 3, 3,19-Diacetyl-14-deoxy-12-(N-4-methoxybenzylamino)andrographolide]	8	3.5	0.18	5.5	5	0.15	180	8000													
C=C1CCC2[C@](C)(CO)[C@H](O)CC[C@]2(C)[C@H]1CC(NCc1ccccc1)C1=CCOC1=O (stereo partly shown) [Example 18, 12-(N-Benzylamino)-14-deoxy andrographolide]									2500	10	2.5	6	3000	3000	10000	2.5	4	70	3500	192	GI50 (A498; Homo sapiens): 2500 nM; Stimulation Index (SI) (Human lymphocytes): 64
C=C1CCC2[C@]3(C)COC(C)(c4ccccc4)OC3CC[C@]2(C)[C@H]1CC(NCc1ccccc1)C1=CCOC1=O (stereo partly shown) [Example 21, 12-(N-Benzylamino)-14-deoxy-3,19-O-(1-phenylethylidene)andrographolide]											2	3	3000	2000	3000	1	2	2000	2000	149.6	GI50 (A498; Homo sapiens): 2000 nM; Stimulation Index (SI) (Human lymphocytes): 16
C=C1CCC2[C@]3(C)COC(C)(c4ccccc4)OC3CC[C@]2(C)[C@H]1CC(NC(Cc1ccccc1)C(=O)OC)C1=CCOC1=O (stereo partly shown) [Example 22, 14-Deoxy-12-(O-methylphenylalanino)-3,19-O-(1-phenylethylidene)andrographolide]									2000	12	3	20	3000	1400	3000	2	4	3000	3000	171.6 to 171.9	GI50 (OVCAR): 1400 nM; GI50 (ACHN): 14 µM
C=C1CCC2[C@]3(C)COC(C)(c4ccccc4)O[C@@H]3CC[C@]2(C)[C@H]1CC(C1=CCOC1=O)N1CCCC1C(=O)OC (stereo partly shown) [Example 23, 14-Deoxy-12-(O-methylprolino)-3,19-O-(1-phenylethylidene)andrographolide]									2000	11	2	15	4000	1000	3000	2	4	2000	2000	141 to 143	GI50 (OVCAR): 1000 nM; GI50 (ACHN): 13 µM
C=C1CCC2[C@](C)(CO)[C@H](O)CC[C@]2(C)[C@H]1CC(C1=CCOC1=O)n1cc(F)c(=O)[nH]c1=O (stereo partly shown) [Example 51, 14-Deoxy-12-[N^1-(5-fluorouracil)]andrographolide]									3000	15	3.5	5	4000	3000	10000	4	7	2000	6000	155	GI50 (A498; Homo sapiens): 2500 nM
C=C1CCC2C(C)(COC(C)=O)C(OC(C)=O)CCC2(C)C1CC(Sc1ccccc1)C1=CCOC1=O (stereo not shown) [Example 58, 3,19-Diacetyl-14-deoxy-12-phenylthio andrographolide]	7.5	5	7	4	6.5	6	200	4000													Stimulation Index (SI) (Human lymphocytes): 99
CC(=O)OCC1(C)C(OC(C)=O)CCC2(C)C(CC(Sc3ccccc3)C3=CCOC3=O)C3(CCC12)CO3 (stereo not shown) [Example 70, 3,19-Diacetyl-14-deoxy-8,17-epoxy-12-phenylthio andrographolide]	2	4	7	3	8	4	4000	7000													
C=C1CC[C@@H]2[C@](C)(CO[C@@H]3O[C@H](CO)[C@@H](O)[C@H](O)[C@H]3O)CCC[C@@]2(C)[C@@H]1CCC1=CCOC1=O [neoandrographolide]																					cytotoxic activity (tumor cell lines): no cytotoxic activity
